According to ChEMBL document CHEMBL1141551, “Discovery of novel PRL-3 inhibitors based on the structure-based virtual screening” (Bioorg Med Chem Lett, 2008):

Each molecule was assayed against Protein tyrosine phosphatase type IVA 3 (Homo sapiens, UniProt O75365) (assay: Inhibition of human PRL3 expressed in Escherichia coli BL21 (DE3)).
Sequence of Protein tyrosine phosphatase type IVA 3 (O75365 whole entry): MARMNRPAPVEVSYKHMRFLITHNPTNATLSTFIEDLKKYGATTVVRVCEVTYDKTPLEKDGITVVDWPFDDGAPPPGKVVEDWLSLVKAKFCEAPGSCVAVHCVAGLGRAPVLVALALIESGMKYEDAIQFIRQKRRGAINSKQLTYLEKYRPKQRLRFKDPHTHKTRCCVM

| IC50 [µM] | SMILES |
| --- | --- |
| 44.7 | COc1ccc(-n2nnnc2SCC(=O)c2ccc(O)c(O)c2)cc1 |
| 13.3 | O=C1NC(=S)S/C1=C/c1ccc(-c2ccccc2C(=O)O)o1 |
| 28.1 | O=C1NC(=O)/C(=C\c2cccn2-c2ccc(C(=O)O)cc2)N1 |
| 43.8 | C=CCn1c(SCC(=O)c2ccc(O)c(O)c2)nnc1-c1cccc(Cl)c1 |
| 18.3 | N#CC1=C(S)N(c2ccccc2)C(/C=C/c2ccc(-c3ccc(Cl)cc3)o2)NC1=O (stereo not given) |
